Experiments:
CCRF-CEM = assay: NCI one-dose SRB assay (Leukemia); format: cell-based, human; details: for Growth Percent: 1.00E-5 Molar; for inhibition at 10 µM: Homo sapiens, read-out: Percentage growth inhibition (GI%)
Method: (§1) The structures of all the newly prepared pyridine-ureas 8a–n were submitted to the National Cancer Institute (NCI) Developmental Therapeutic Program. Eight compounds 8b, 8d, 8e, 8i, 8j and 8l–n were selected to be examined for their in vitro growth inhibitory activity. The anticancer assays were carried out according to the protocol of the Drug Evaluation Branch, NCI, Bethesda. The selected pyridine-ureas were tested at one dose primary anticancer assay against a panel of approximately 58 cancer lines (concentration 10^−5 M). The tested human cancer cell lines emerged from nine different cancer subtypes: leukemia, colon, melanoma, ovarian, lung, CNS, renal, breast and prostate cancers. The sulforhodamine B (SRB) protein assay was adopted to estimate the cell viability and growth. The results were reported as mean-graph of the percentage growth of the treated cells, and presented as percentage growth inhibition (GI%) caused by the test compounds (Table 2).
(§2) The anticancer assays were performed in accordance with the protocol of the Drug Evaluation Branch, NCI, Bethesda. A 48 h drug exposure protocol was used and sulforhodamine B (SRB) protein assay was applied to estimate the cell viability and growth, as reported earlier.

HL-60(TB) = assay: NCI one-dose SRB assay (Leukemia); format: cell-based, human; details: for Growth Percent: 1.00E-5 Molar; for inhibition at 10 µM: Homo sapiens, read-out: Percentage growth inhibition (GI%)
Method: as §1, §2

K-562 = assay: NCI one-dose SRB assay (Leukemia); format: cell-based, human; details: for Growth Percent: K-562, 1.00E-5 Molar; for inhibition at 10 µM: Homo sapiens, K562, read-out: Percentage growth inhibition (GI%)
Method: as §1, §2

MOLT-4 = assay: NCI one-dose SRB assay (Leukemia); format: cell-based, human; details: for Growth Percent: MOLT-4, 1.00E-5 Molar; for inhibition at 10 µM: Homo sapiens, read-out: Percentage growth inhibition (GI%)
Method: as §1, §2

RPMI-8226 = assay: NCI one-dose SRB assay (Leukemia); format: cell-based, human; details: for Growth Percent: RPMI-8226, 1.00E-5 Molar; for inhibition at 10 µM: Homo sapiens, read-out: Percentage growth inhibition (GI%)
Method: as §1, §2

SR = assay: NCI one-dose SRB assay (Leukemia); format: cell-based, human; details: for Growth Percent: 1.00E-5 Molar; for inhibition at 10 µM: Homo sapiens, read-out: Percentage growth inhibition (GI%)
Method: as §1, §2

IGROV1 = assay: NCI one-dose SRB assay (Ovarian Cancer); format: cell-based, human; details: for Growth Percent: IGROV1, 1.00E-5 Molar; for inhibition at 10 µM: Homo sapiens, IGROV-1, read-out: Percentage growth inhibition (GI%)
How it was run: (§3)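 SRB assay, 48 h drug exposure, compound fixed at 10^−5 M; output expressed as % growth inhibition.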

NCI/ADR-RES = assay: NCI one-dose SRB assay (Ovarian Cancer); format: cell-based, human; details: for Growth Percent: 1.00E-5 Molar; for inhibition at 10 µM: Homo sapiens, read-out: Percentage growth inhibition (GI%)
How it was run: as §3

OVCAR-8 = assay: NCI one-dose SRB assay (Ovarian Cancer); format: cell-based, human; details: for Growth Percent: OVCAR-8, 1.00E-5 Molar; for inhibition at 10 µM: Homo sapiens, read-out: Percentage growth inhibition (GI%)
How it was run: as §3

SK-OV-3 = assay: NCI one-dose SRB assay (Ovarian Cancer); format: cell-based, human; details: for Growth Percent: SK-OV-3, 1.00E-5 Molar; for inhibition at 10 µM: Homo sapiens, read-out: Percentage growth inhibition (GI%)
How it was run: as §3

[1] = system: non-tumorigenic human lung fibroblast WI-38 cell line; assay: Cytotoxic activity against non-tumorigenic cells, MTT assay; format: cell-based; details: WI-38, MTT
Method: The cytotoxic activity of compounds 8b and 8e were evaluated against non-tumorigenic human lung fibroblast WI-38 cell line utilizing the MTT colorimetric assay developed by T. Mosmann (Table 3).
MCF-7 (human breast cancer cell line) and WI-38 (human lung fibroblast cell line), were obtained from American Type Culture Collection (Manassas, VA, USA). The cells were propagated in DMEM and supplemented with 10% heat-inactivated FBS (Hyclone), 10 μg/mL of insulin (Manufacturer, Sigma, St. Louis, MO, USA), and 1% penicillin-streptomycin. MTT assay was utilized to examine the in vitro anti-proliferative activity of the newly prepared ureas following the reported procedures. […] The data presented are the mean of at least three separate experiments.

VEGFR-2 = VEGFR-2 (Homo sapiens, UniProt P35968); assay: VEGFR-2 inhibitory assay (Alpha Screen, anti-phosphotyrosine antibody)
Chain of VEGFR-2 (P35968 20-1356, species assumed): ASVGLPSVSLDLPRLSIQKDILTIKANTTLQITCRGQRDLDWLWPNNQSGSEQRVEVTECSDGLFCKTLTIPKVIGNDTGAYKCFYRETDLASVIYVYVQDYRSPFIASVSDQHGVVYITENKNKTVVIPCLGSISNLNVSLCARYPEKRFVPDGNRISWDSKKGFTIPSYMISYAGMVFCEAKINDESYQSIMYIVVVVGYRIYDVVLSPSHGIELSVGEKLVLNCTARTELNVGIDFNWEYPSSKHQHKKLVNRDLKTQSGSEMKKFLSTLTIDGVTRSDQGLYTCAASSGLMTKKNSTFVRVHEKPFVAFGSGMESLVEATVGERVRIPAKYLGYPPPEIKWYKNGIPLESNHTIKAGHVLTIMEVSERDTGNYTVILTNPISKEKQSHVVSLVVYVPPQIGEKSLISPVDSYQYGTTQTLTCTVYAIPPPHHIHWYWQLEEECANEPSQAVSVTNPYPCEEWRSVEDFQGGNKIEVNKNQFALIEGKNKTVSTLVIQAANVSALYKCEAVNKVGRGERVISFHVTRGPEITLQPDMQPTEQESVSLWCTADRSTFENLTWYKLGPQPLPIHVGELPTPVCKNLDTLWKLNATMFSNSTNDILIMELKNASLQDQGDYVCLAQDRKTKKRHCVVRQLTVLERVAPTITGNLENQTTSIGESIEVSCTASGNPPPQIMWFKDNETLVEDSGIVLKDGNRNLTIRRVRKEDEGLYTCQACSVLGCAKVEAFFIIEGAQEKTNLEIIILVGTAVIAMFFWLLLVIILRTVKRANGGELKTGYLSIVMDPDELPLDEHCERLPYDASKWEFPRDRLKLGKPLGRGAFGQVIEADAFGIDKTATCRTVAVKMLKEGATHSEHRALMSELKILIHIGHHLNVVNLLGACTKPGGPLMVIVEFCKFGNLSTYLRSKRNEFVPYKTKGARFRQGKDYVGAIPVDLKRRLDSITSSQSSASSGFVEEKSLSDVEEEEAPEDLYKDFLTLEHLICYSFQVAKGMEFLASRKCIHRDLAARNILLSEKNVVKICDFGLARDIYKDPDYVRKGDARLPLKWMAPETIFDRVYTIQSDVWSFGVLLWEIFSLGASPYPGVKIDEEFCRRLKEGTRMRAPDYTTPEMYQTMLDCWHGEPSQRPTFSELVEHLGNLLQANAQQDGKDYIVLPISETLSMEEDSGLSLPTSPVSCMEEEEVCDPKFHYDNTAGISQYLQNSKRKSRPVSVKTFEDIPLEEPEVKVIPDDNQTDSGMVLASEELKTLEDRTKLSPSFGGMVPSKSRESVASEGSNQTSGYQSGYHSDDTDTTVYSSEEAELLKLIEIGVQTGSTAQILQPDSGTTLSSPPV

| Compound | Growth Percent (CCRF-CEM) [%] | Growth Percent (HL-60(TB)) [%] | Growth Percent (K-562) [%] | Growth Percent (MOLT-4) [%] | Growth Percent (RPMI-8226) [%] | Growth Percent (SR) [%] | Growth Percent (IGROV1) [%] | Growth Percent (NCI/ADR-RES) [%] | Growth Percent (OVCAR-8) [%] | Growth Percent (SK-OV-3) [%] | inhibition at 10 µM (CCRF-CEM; 10 μM) [%] | inhibition at 10 µM (HL-60(TB); 10 μM) [%] | inhibition at 10 µM (K-562; K-562, 10 μM) [%] | inhibition at 10 µM (MOLT-4; MOLT-4, 10 μM) [%] | inhibition at 10 µM (RPMI-8226; RPMI-8226, 10 μM) [%] | inhibition at 10 µM (SR; 10 μM) [%] | inhibition at 10 µM (IGROV1; IGROV1, 10 μM) [%] | inhibition at 10 µM (NCI/ADR-RES; 10 μM) [%] | inhibition at 10 µM (OVCAR-8; OVCAR-8, 10 μM) [%] | inhibition at 10 µM (SK-OV-3; SK-OV-3, 10 μM) [%] | also measured |
| --- | --- | --- | --- | --- | --- | --- | --- | --- | --- | --- | --- | --- | --- | --- | --- | --- | --- | --- | --- | --- | --- |
| 1-(4-Chloro-4-(trifluoromethyl)cyclohexa-2,5-dien-1-yl)-3-(6-(3,4-dimethoxyphenyl)-2-methylpyridin-3-yl)urea [Compound 8l] | 55.04 | 52.58 | 49.47 | 43.68 | 43.88 | 60.09 | 83.06 | 69.67 | 81.32 | 84.22 | – | – | – | – | – | – | – | – | – | – | Percentage growth inhibition (GI%) (CCRF-CEM; 10 μM): 45%; Percentage growth inhibition (GI%) (HL-60(TB); 10 μM): 48%; Percentage growth inhibition (GI%) (K-562; K-562, 10 μM): 51%; Percentage growth inhibition (GI%) (MOLT-4; MOLT-4, 10 μM): 57%; Percentage growth inhibition (GI%) (RPMI-8226; RPMI-8226, 10 μM): 57%; Percentage growth inhibition (GI%) (SR; 10 μM): 40%; Percentage growth inhibition (GI%) (IGROV1; IGROV1, 10 μM): 17%; Percentage growth inhibition (GI%) (NCI/ADR-RES; 10 μM): 31%; Percentage growth inhibition (GI%) (OVCAR-8; OVCAR-8, 10 μM): 19%; Percentage growth inhibition (GI%) (SK-OV-3; SK-OV-3, 10 μM): 16% |
| COc1ccc(-c2ccc(NC(=O)Nc3cccc(C(F)(F)F)c3)c(C)n2)cc1 [Compound 8b, 1-(6-(4-Methoxyphenyl)-2-methylpyridin-3-yl)-3-(3-(trifluoromethyl)phenyl) Urea] | 42.94 | 49.75 | 32.55 | 33.74 | 22.58 | 36.30 | 91.33 | 53.15 | 61.89 | 82.08 | 58 | 51 | 68 | 67 | 78 | 64 | < 10 | 47 | 39 | 18 | IC50 [1]: 91.5 ± 4.53 µM; IC50 (VEGFR-2): 5 ± 1.91 µM |
| COc1ccc(-c2ccc(NC(=O)Nc3ccc(Cl)cc3)c(C)n2)cc1 [Compound 8d, 1-(4-Chlorophenyl)-3-(6-(4-methoxyphenyl)-2-methylpyridin-3-yl) Urea] | 81.43 | 79.74 | 84.35 | 72.42 | 90.15 | 43.88 | 83.85 | 92.03 | 93.26 | 82.66 | 19 | 21 | 16 | 28 | 10 | 57 | 17 | < 10 | < 10 | 18 | – |
| COc1ccc(-c2ccc(NC(=O)Nc3ccc(Cl)c(C(F)(F)F)c3)c(C)n2)cc1 [Compound 8e, 1-(4-Chloro-3-(trifluoromethyl)phenyl)-3-(6-(4-methoxyphenyl)-2-methylpyridin-3-yl)urea] | 29.88 | 32.27 | 16.70 | 24.60 | 9.87 | 35.68 | 52.86 | 49.78 | 57.40 | 68.11 | 71 | 68 | 84 | 76 | 91 | 65 | 48 | 51 | 43 | 32 | IC50 [1]: 83.1 ± 5.21 µM; IC50 (VEGFR-2): 3.93 ± 0.73 µM |
| COc1ccc(-c2ccc(NC(=O)Nc3cccc(C(F)(F)F)c3)c(C)n2)cc1OC [Compound 8i, 1-(6-(3,4-Dimethoxyphenyl)-2-methylpyridin-3-yl)-3-(3-(trifluoromethyl)phenyl) Urea] | 50.94 | 61.08 | 31.93 | 39.58 | 34.61 | 51.13 | 91.46 | 66.87 | 81.32 | 101.37 | 50 | 39 | 69 | 61 | 66 | 49 | < 10 | 34 | 19 | < 10 | – |
| COc1ccc(-c2ccc(NC(=O)Nc3cccc(Cl)c3)c(C)n2)cc1OC [Compound 8j, 1-(3-Chlorophenyl)-3-(6-(3,4-dimethoxyphenyl)-2-methylpyridin-3-yl) Urea] | 68.29 | 63.92 | 40.86 | 42.64 | 51.32 | 52.07 | 100.28 | 84.81 | 90.16 | 83.62 | 32 | 37 | 60 | 58 | 49 | 48 | < 10 | 16 | 10 | 17 | – |
| COc1cccc(NC(=O)Nc2ccc(-c3ccc(OC)c(OC)c3)nc2C)c1 [Compound 8m, 1-(6-(3,4-Dimethoxyphenyl)-2-methylpyridin-3-yl)-3-(3-methoxyphenyl) Urea] | 89.11 | 73.33 | 78.49 | 65.34 | 74.18 | 82.12 | 112.08 | 92.25 | 102.37 | 99.49 | 11 | 27 | 22 | 35 | 26 | 18 | < 10 | < 10 | < 10 | < 10 | – |
| COc1ccc(NC(=O)Nc2ccc(-c3ccc(OC)c(OC)c3)nc2C)cc1 [Compound 8n, 1-(6-(3,4-Dimethoxyphenyl)-2-methylpyridin-3-yl)-3-(4-methoxyphenyl) Urea] | 97.16 | 85.74 | 73.25 | 85.62 | 83.77 | 57.29 | 77.14 | 84.96 | 47.38 | 74.76 | < 10 | 15 | 27 | 15 | 17 | 43 | 23 | 16 | 53 | 26 | – |

— paper PMC6100082, “Pyridine-Ureas as Potential Anticancer Agents: Synthesis and In Vitro Biological Evaluation” (Molecules : A Journal of Synthetic Chemistry and Natural …, 2018)
